Laboratory results taken from ChEMBL document CHEMBL3272066, “Synthesis of nitrosourea derivatives of sucrose as central nervous system anticancer agents” (J Med Chem, 1977).

Experiments:
L1210 [1] = assay: Antitumor activity against mouse L1210 cells allografted in CDF1 mouse at 50 mg/kg, ip administered from day 1 to day 9 relative to control; assay type: functional; conditions: route intraperitoneal
L1210 [2] = assay: Antitumor activity against mouse L1210 cells allografted in CDF1 mouse at 100 mg/kg, ip administered from day 1 to day 9 relative to control; assay type: functional; conditions: route intraperitoneal
L1210 [3] = assay: Antitumor activity against mouse L1210 cells allografted in CDF1 mouse at 200 mg/kg, ip administered from day 1 to day 9 relative to control; assay type: functional; conditions: route intraperitoneal
[4] = Antitumor activity against mouse ependymoblastoma cells allografted in […] mouse at 50 mg/kg, ip administered from day 1 to day 5 relative to control; assay type: functional; conditions: route intraperitoneal
[5] = Antitumor activity against mouse ependymoblastoma cells allografted in […] mouse at 100 mg/kg, ip administered from day 1 to day 5 relative to control; assay type: functional; conditions: route intraperitoneal
[6] = Antitumor activity against mouse ependymoblastoma cells allografted in […] mouse at 200 mg/kg, ip administered from day 1 to day 5 relative to control; assay type: functional; conditions: route intraperitoneal
Mus musculus = assay: Toxicity in […] mouse allografted with mouse ependymoblastoma cells at 400 mg/kg, ip administered from day 1 to day 5 relative to control; assay type: organism-based; design: dose 400 mg/kg, route intraperitoneal; conditions: in vivo
L1210 [7] = assay: Antitumor activity against mouse L1210 cells allografted in CDF1 mouse at 29 mg/kg, ip administered from day 1 to day 9 relative to control; assay type: functional; conditions: route intraperitoneal
L1210 [8] = assay: Antitumor activity against mouse L1210 cells allografted in CDF1 mouse at 44 mg/kg, ip administered from day 1 to day 9 relative to control; assay type: functional; conditions: route intraperitoneal
L1210 [9] = assay: Antitumor activity against mouse L1210 cells allografted in CDF1 mouse at 66 mg/kg, ip administered from day 1 to day 9 relative to control; assay type: functional; conditions: route intraperitoneal
[10] = Antitumor activity against mouse ependymoblastoma cells allografted in C57BL/6 mouse at 130 mg/kg, ip administered from day 1 to day 5 relative to control; assay type: functional; conditions: route intraperitoneal
[11] = Antitumor activity against mouse ependymoblastoma cells allografted in C57BL/6 mouse at 100 mg/kg, ip administered from day 1 to day 5 relative to control; assay type: functional; conditions: route intraperitoneal

| SMILES | T/C (L1210 [1]) | T/C (L1210 [2]) | T/C (L1210 [3]) | T/C [4] | T/C [5] | T/C [6] | Activity (Mus musculus) | T/C (L1210 [7]) | T/C (L1210 [8]) | T/C (L1210 [9]) | T/C [10] | T/C [11] |
| --- | --- | --- | --- | --- | --- | --- | --- | --- | --- | --- | --- | --- |
| CN(N=O)C(=O)NC[C@H]1O[C@@](CNC(=O)N(C)N=O)(O[C@H]2O[C@H](CNC(=O)N(C)N=O)[C@@H](O)[C@H](O)[C@H]2O)[C@@H](O)[C@@H]1O | 110% | 117% | 137% | 97% | 120% | 133% | Non-toxic |  |  |  |  |  |
| CN(N=O)C(=O)NC[C@H]1O[C@@](CO)(O[C@H]2O[C@H](CNC(=O)N(C)N=O)[C@@H](O)[C@H](O)[C@H]2O)[C@@H](O)[C@@H]1O | 107% | 129% | 137% | 111% | 97% | 148% | Toxic |  |  |  |  |  |
| CC(=O)OC[C@@]1(O[C@H]2O[C@H](CNC(=O)N(C)N=O)[C@@H](OC(C)=O)[C@H](OC(C)=O)[C@H]2OC(C)=O)O[C@H](CNC(=O)N(C)N=O)[C@@H](OC(C)=O)[C@@H]1OC(C)=O | 109% | 105% | 119% |  |  |  |  |  |  |  |  |  |
| CC(=O)O[C@@H]1[C@@H](OC(C)=O)[C@@H](O[C@]2(CNC(=O)N(C)N=O)O[C@H](CNC(=O)N(C)N=O)[C@@H](OC(C)=O)[C@@H]2OC(C)=O)O[C@H](CNC(=O)N(C)N=O)[C@H]1OC(C)=O | 104% | 102% | 120% |  |  |  |  |  |  |  |  |  |
| CN(N=O)C(=O)N[C@@H](C=O)[C@@H](O)[C@H](O)[C@H](O)CO [STREPTOZOCIN] |  | 107% |  |  |  |  |  | 117% | 137% | 109% | 127% | 144% |
